From patent publication US20030082511A1, “Identification of modulatory molecules using inducible promoters” (priority 2001, published 2003)

Experiments:
[1] = target: T1, mouse potassium voltage-gated channel KCNC1 (Mus musculus, UniProt P15388); assay: Membrane potential assay (Disbac5Me4/Disbac3Me4 fluorescence) in tetracycline-inducible KCNC1 TREX/CHO cells; type: cell-based; conditions: for depolarization (change in fluorescence intensity of the indicator dye) on addition of potassium chloride: KCl added in 50 mM steps, induced vs non-induced KCNC1 CHO cells, FIG. 4; for response to KCl addition / depolarization with KCl (membrane potential dye fluorescence): induced KCNC1 CHO cells pre-incubated with BaCl2 30 mM at least 30 minutes
T1 construct: The 2 kb KCNC1 gene fragment and the pcDNA4/Tob vector were gel purified, ligated; host or cells: T-REx CHO cells
T1 sequence (P15388 1-585 isoform P15388-3): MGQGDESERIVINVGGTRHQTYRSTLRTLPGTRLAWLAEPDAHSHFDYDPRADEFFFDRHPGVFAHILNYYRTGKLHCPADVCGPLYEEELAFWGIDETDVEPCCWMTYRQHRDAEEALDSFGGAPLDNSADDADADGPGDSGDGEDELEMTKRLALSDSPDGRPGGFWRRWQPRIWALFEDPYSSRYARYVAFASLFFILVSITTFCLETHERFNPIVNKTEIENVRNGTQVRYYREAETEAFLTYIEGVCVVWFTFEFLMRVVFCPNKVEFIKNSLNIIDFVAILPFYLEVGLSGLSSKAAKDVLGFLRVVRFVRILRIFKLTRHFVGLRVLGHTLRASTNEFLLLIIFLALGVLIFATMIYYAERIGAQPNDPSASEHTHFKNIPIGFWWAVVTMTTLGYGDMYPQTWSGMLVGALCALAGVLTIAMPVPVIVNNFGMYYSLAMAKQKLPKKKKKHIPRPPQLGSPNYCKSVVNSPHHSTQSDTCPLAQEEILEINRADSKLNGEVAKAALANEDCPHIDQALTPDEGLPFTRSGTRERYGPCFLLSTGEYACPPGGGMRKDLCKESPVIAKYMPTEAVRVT
Procedure: In this example, fluorescent dyes are used to assay for changes in membrane potential, essentially as described in Example 4.
A KCNC1 positive TREX/CHO clone was plated at 3×10^6 cells in replicate 10 cm tissue culture dishes. After 24 hours one dish was treated with 10 μg/mL deoxycycline to induce KCNC1 expression. After a 24 hour induction period, both induced and uninduced cells were harvested with trypsin, counted, and adjusted to equal cell densities in hybridoma media (Sigma, St. Louis, Mo.). A solution of 3.3×10^5 cells and 0.4 μM of each Disbac5Me4 and Disbac3Me4 in hybridoma media was stirred in a cuvette in a JY-Fluormax-2 fluorometer (JY, Edison N.J.). Fluorescence intensity from 540 nm excitation and 690 nm emission was measured over time. The extracellular potassium chloride level was adjusted to 50 mM, 10 mM, and 150 mM with 3 N KCl at the indicated times. Each cell population was tested in triplicate and the mean and standard error (SE) were determined.
4-aminopyridine is a known specific inhibitor of Kv3.1b (Grissmer et al., Molec. Pharmacol. 45:1227-1234, 1994; Kirsch and Drewe, Jour. Gen. Physiol. 102:797-816, 1993; Grissmer et al. Jour. Biol. Chem. 267:20971-20979, 1992), the human homologue of KCNC1. […] Pre-incubation with 30 mM KCl had no effect, ruling out the possibility that effects of BaCl2 resulted from simply changing the ionic strength of the extracellular medium (data not shown). Each cell population was tested in triplicate. The mean and SE are shown in the FIG. 5 (aminopyridine) and FIG. 6 (BaCl2).

[2] = target: T2, HERG potassium ion channel (Homo sapiens, UniProt Q12809); assay: Membrane potential assay (Disbac5Me4/Disbac3Me4 fluorescence) in inducible HERG TREX/CHO clone 5J; type: cell-based; conditions: FIG. 8
T2 construct: expressed in transfected cells; host or cells: T-REx CHO cells, clone 5J
T2 sequence (Q12809 whole entry): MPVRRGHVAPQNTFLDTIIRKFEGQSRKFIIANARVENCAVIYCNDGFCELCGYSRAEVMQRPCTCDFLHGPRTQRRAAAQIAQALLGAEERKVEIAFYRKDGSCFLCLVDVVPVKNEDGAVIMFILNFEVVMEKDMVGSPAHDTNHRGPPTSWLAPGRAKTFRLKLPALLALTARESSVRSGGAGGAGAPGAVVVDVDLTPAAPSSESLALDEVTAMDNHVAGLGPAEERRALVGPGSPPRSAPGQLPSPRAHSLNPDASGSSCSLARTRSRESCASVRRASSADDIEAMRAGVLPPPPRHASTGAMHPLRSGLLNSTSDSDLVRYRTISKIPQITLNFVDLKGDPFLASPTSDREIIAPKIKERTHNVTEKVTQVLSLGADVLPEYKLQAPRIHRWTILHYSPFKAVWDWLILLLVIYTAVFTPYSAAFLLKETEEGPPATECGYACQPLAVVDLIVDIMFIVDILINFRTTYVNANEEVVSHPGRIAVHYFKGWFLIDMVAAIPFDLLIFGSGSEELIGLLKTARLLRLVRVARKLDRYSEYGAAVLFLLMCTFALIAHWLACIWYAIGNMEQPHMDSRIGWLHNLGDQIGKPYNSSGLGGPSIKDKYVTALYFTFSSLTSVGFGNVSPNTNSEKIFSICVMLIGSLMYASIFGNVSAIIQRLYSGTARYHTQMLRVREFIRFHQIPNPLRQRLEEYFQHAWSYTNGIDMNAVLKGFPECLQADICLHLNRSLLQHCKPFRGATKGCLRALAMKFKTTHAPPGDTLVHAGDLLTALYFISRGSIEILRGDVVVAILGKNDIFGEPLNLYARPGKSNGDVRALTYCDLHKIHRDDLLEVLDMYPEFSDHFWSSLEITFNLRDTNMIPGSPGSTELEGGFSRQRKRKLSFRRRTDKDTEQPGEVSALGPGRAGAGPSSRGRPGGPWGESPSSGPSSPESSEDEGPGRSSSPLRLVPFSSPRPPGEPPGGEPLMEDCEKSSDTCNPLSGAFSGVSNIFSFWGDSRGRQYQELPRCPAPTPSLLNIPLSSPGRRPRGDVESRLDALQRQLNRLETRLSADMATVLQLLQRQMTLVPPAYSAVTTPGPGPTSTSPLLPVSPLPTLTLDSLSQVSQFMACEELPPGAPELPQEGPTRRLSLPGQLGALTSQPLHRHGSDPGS
Procedure: The HERG positive TREX/CHO clone 5J was plated at 3×10^6 cells in replicate 10 cm tissue culture dishes. After 24 hours one dish was treated with […] doxycycline to induce HERG expression. After 24 hours induction, both induced and uninduced cells were harvested with trypsin, counted and adjusted to the same cell density in hybridoma media (Sigma). A solution of 1×10^5 cells/ml and 0.4 μM each Disbac5Me4 and Disbac3Me4 in hybridoma media was stirred in a cuvette in a JY-Spex fluorometer. Fluorescence intensity from 540 excitation and 690 emission was followed over time. The extracellular potassium chloride was adjusted to 100 mM with 3N KCl at the indicated time. 25 nM pimozide was then added at the indicated time.

## Nc1ccncc1 [4-aminopyridine]
[1]; induced KCNC1 CHO cells pre-incubated with 4-aminopyridine 900 μM at least 30 minutes, FIG. 5
  response to KCl addition (membrane potential dye fluorescence): lessened the response to KCl addition
[1]; pre-incubated with 4-aminopyridine (900 μM), FIG. 5
  characteristics of cells induced to overexpress KCNC1 compared with uninduced cells: show characteristics more similar to uninduced cells

## [Cl-].[K+] [KCl, potassium chloride]
[1]
  depolarization (change in fluorescence intensity of the indicator dye) on addition of potassium chloride: show a response
[1]; listed as potassium chloride
  depolarization (change in fluorescence intensity of the indicator dye) on addition of potassium chloride: depolarization of the an induced population of cells in comparison to a non-induced cell population
[1]; pre-incubation with 30 mM KCl, data not shown
  effect of pre-incubation on membrane potential response (ionic strength control): no effect
[2]; 100 mM KCl, induced HERG expressing vs uninduced cells
  depolarization on addition of potassium chloride: depolarizes the HERG expressing cells to a greater extent than the uninduced cells

## O=c1[nH]c2ccccc2n1C1CCN(CCCC(c2ccc(F)cc2)c2ccc(F)cc2)CC1 [pimozide]
[2]; 25 nM pimozide added after 100 mM KCl, induced vs uninduced cells
  sensitivity of membrane potential to pimozide: more sensitive

## [Ba+2].[Cl-].[Cl-] [BaCl2]
[1]; KCNC1 CHO cells pre-incubated with BaCl2 30 mM at least 30 minutes, FIG. 6
  resting potential: less polarized resting potential
[1]; FIG. 6
  response to KCl addition / depolarization with KCl (membrane potential dye fluorescence): ameliorated the response to KCl addition
[1]; FIG. 6, listed as BaCI2
  response to KCl addition / depolarization with KCl (membrane potential dye fluorescence): decreased response to depolarization with KCl
[1]; pre-incubated with BaCl2 (30 mM), FIG. 6
  characteristics of cells induced to overexpress KCNC1 compared with uninduced cells: show characteristics more similar to uninduced cells
